The text below walks through data of patent publication US20250041307A1, “Uses of Bicyclic Compounds for the Treatment of Diseases” (Athira Pharma, Inc., priority 2021, published 2025).

Where only a bound is given, the exact number is not on record here.

Data set [1] is described as follows: Parallel artificial membrane permeability assay (PAMPA). Conditions: PBS, room temperature for 5 hours, 200 uM in donor well. Format: in vitro ADME. In outline: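 Compounds in PBS (initial donor concentration 200 uM) placed in donor wells against PBS acceptor, 5 replicates, incubated 5 hours at room temperature. Donor and acceptor concentrations quantified by UV plate reading against per-compound 6-point standard curves; permeability and membrane retention calculated from concentrations, volumes, filter area and time.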
On the technique in general: PAMPA measures passive passage across an artificial lipid membrane.

Data set [2] is described as follows: In vitro stability in simulated gastric and intestinal fluids. Format: in vitro ADME. Particulars: 37° C.; for SGF, compound remaining after 4 hours: simulated gastric fluid pH 1.2, 5 μM; for SGF + Enz, compound remaining after 4 hours: simulated gastric fluid with 3.2 mg/ml pepsin; for SGF + Enz, compound remaining after 4 hours / SIF, compound remaining after 4 hours: 5 μM; for SIF, compound remaining after 4 hours: simulated intestinal fluid pH 6.8 with 10 mg/ml pancreatin. How it is done: Bioavailability can be estimated by compound stability when exposed to conditions in the body. As an initial assessment of stability properties in a variety of conditions present in animals, exemplary compounds were tested for stability in a battery of simulated body compartments. Compounds were tested for stability in the following solutions: simulated gastric fluid (SGF: 34.2 mM NaCl, pH 1.2), simulated gastric fluid with the digestive enzyme pepsin (SGF+Enzyme: SGF with 3.2 mg/ml pepsin), simulated intestinal fluid with the mixture of enzymes in porcine pancreatin (SIF+Enzyme: 28.7 mM NaH2PO4, 105.7 mM NaCl, pH 6.8, 10 mg/ml pancreatin), rat plasma, and human plasma.
Test compounds were incubated at a final concentration of 5 μM in the above solutions at 37° C. with samples removed at the following time points: 0, 1, 2, and 4 hours. Reactions were stopped and prepared for quantification by addition of excess quench solution containing an internal standard (acetonitrile, 200 ng/mL bucetin). Test compound and internal standard in each sample was quantified by LC-MS/MS, and after internal normalization to bucetin, test compound concentration was expressed as a percentage of concentration at the 0-hour time point. Stability in the relevant test solution was then determined by the percent remaining at the 4-hour time point.

The next data set concerns HGF/MET system. As to the kind of experiment: Phospho-MET ELISA. It counts as cell-based. Particulars: HEK293 cells; with 1 ng/mL recombinant HGF; 15 minutes; augmentation of MET phosphorylation (pMET ELISA). In outline:
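Serum-starved (≥8 h) HEK293 cells treated with compound plus 1 ng/mL recombinant HGF for 15 min at 37° C in triplicate, then lysed in RIPA. Equal protein (50–100 μg, BCA-normalized) run in pMET sandwich ELISA, A450 read. Responses scaled 1–10 between 1 ng/mL and 10 ng/mL HGF means, using peak efficacy.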

With `CCC(C)CN1CC2N(C(=O)c3ccc(OC(F)F)cc3)CCC(=O)N2[C@@H](C)C1=O` (stereo partly drawn) [Compound 2a], in data set [1], the apparent permeability coefficient (Papp) at 5 h, 200 uM was < 2 ×10⁻⁶ cm/s. Further, in data set [2], the “SGF, compound remaining after 4 hours” value is given as “++++ (++++ indicates 100% compound remaining after 4 hours)”; the “SGF + Enz, compound remaining after 4 hours” value (“SGF + Enz, compound remaining” for short) is given as “+++ (+++ indicates 80-99% compound remaining after 4 hours)”; the “SIF, compound remaining after 4 hours” value is on record as “++++ (++++ indicates 100% compound remaining after 4 hours)”. The Potency entry with HGF/MET system was “++ (++ indicates maximum potency at or above 10 nM)”.

For the compound `CCC(C)CN1CC2N(C(=O)c3ccc(O)cc3)CCC(=O)N2[C@@H](C)C1=O` (stereo partly drawn) [Compound 8a], the Papp at 5 h, 200 uM in data set [1] was > 10 ×10⁻⁶ cm/s. In data set [2], the “SGF, compound remaining after 4 hours” value was “++++ (++++ indicates 100% compound remaining after 4 hours)”; the “SGF + Enz, compound remaining” value is on record as “+++ (+++ indicates 80-99% compound remaining after 4 hours)”; the “SIF, compound remaining after 4 hours” value is on record as “+++ (+++ indicates 80-99% compound remaining after 4 hours)”. For the same compound, the Potency result in the data set with HGF/MET system is on record as “+ (+ indicates maximum potency at or above 100 nM)”.

Turning to `CCC(C)CN1CC2N(Cc3ccc(OC(F)F)cc3)CCC(=O)N2[C@@H](C)C1=O` (stereo partly drawn) [Compound 6a], in data set [1], the Papp at 5 h, 200 uM was < 2 ×10⁻⁶ cm/s. Also, in data set [2], the “SGF, compound remaining after 4 hours” value is on record as “+++ (+++ indicates 80-99% compound remaining after 4 hours)”; the “SGF + Enz, compound remaining” value is recorded as “+ (+ indicates 20-39% compound remaining after 4 hours)”; the “SIF, compound remaining after 4 hours” value was “++ (++ indicates 40-79% compound remaining after 4 hours)”. The Potency entry with HGF/MET system is reported as “+ (+ indicates maximum potency at or above 100 nM)”.

As for `CCC(C)CN1CC2N(C(=O)c3ccc(C(F)(F)F)c(Cl)c3)CCC(=O)N2C(C)C1=O` (stereo not drawn) [Compound 12, 1-(3-chloro-4-(trifluoromethyl)benzoyl)-6-methyl-8-(2-methylbutyl)hexahydro-4H-pyrazino[1,2-a]pyrimidine-4,7(6H)-dione], the Papp at 5 h, 200 uM in data set [1] is < 2 ×10⁻⁶ cm/s. Moreover, in data set [2], the “SGF, compound remaining after 4 hours” value was “+++ (+++ indicates 80-99% compound remaining after 4 hours)”; the “SGF + Enz, compound remaining” value is reported as “+++ (+++ indicates 80-99% compound remaining after 4 hours)”; the “SIF, compound remaining after 4 hours” value is “++ (++ indicates 40-79% compound remaining after 4 hours)”. For the same compound, the Potency entry in the data set on HGF/MET system is reported as “++ (++ indicates maximum potency at or above 10 nM)”.

Consider `CCC(C)CN1CC2N(Cc3ccc(C(F)(F)F)cc3)CCC(=O)N2[C@@H](C)C1=O` (stereo partly drawn) [Compound 5a], for which the Papp at 5 h, 200 uM in data set [1] is < 2 ×10⁻⁶ cm/s. Further, in data set [2], the “SGF, compound remaining after 4 hours” value was “+++ (+++ indicates 80-99% compound remaining after 4 hours)”; the “SGF + Enz, compound remaining” value was “+ (+ indicates 20-39% compound remaining after 4 hours)”; the “SIF, compound remaining after 4 hours” value is “+++ (+++ indicates 80-99% compound remaining after 4 hours)”. Besides, the Potency entry in the data set on HGF/MET system is “+ (+ indicates maximum potency at or above 100 nM)”.

Regarding `CCC(C)CN1CC2N(Cc3ccc(O)nc3)CCC(=O)N2[C@@H](C)C1=O` (stereo partly drawn) [Compound 7a], in data set [1], the Papp at 5 h, 200 uM was > 10 ×10⁻⁶ cm/s. Also, in data set [2], the “SGF, compound remaining after 4 hours” value was “++++ (++++ indicates 100% compound remaining after 4 hours)”; the “SGF + Enz, compound remaining” value is listed as “+++ (+++ indicates 80-99% compound remaining after 4 hours)”; the “SIF, compound remaining after 4 hours” value is “++ (++ indicates 40-79% compound remaining after 4 hours)”. Also, the Potency entry in the data set on HGF/MET system is listed as “++ (++ indicates maximum potency at or above 10 nM)”.

On to `CCC(C)CN1CC2N(C(=O)c3ccc(C(F)(F)F)cc3)CCC(=O)N2[C@@H](C)C1=O` (stereo partly drawn) [Compound 1a], for which the apparent permeability (Papp) at 5 h, 200 uM in data set [1] was > 2 ×10⁻⁶ cm/s. In addition, in data set [2], the “SGF, compound remaining after 4 hours” value is “++++ (++++ indicates 100% compound remaining after 4 hours)”; the “SGF + Enz, compound remaining” value is listed as “++++ (++++ indicates 100% compound remaining after 4 hours)”; the “SIF, compound remaining after 4 hours” value is “++++ (++++ indicates 100% compound remaining after 4 hours)”. The Potency result with HGF/MET system is reported as “++++ (++++ indicates maximum potency at or above 0.1 nM)”.

With `CC1C(=O)N(CCC2CCCC2)CC2N(C(=O)c3ccc(C(F)(F)F)cc3)CCC(=O)N12` (stereo not drawn) [Compound 19], in data set [1], the apparent permeability coefficient (Papp) at 5 h, 200 uM was < 2 ×10⁻⁶ cm/s. In data set [2], the “SGF, compound remaining after 4 hours” value was “+++ (+++ indicates 80-99% compound remaining after 4 hours)”; the “SGF + Enz, compound remaining” value was “++ (++ indicates 40-79% compound remaining after 4 hours)”; the “SIF, compound remaining after 4 hours” value was “+ (+ indicates 20-39% compound remaining after 4 hours)”. The Potency entry in the data set on HGF/MET system was “+++ (+++ indicates maximum potency at or above 1 nM)”.

As for `CCCCN1CC2N(C(=O)c3ccc(OC(F)F)cc3)CCC(=O)N2C(C)C1=O` (stereo not drawn) [Compound 17], in data set [1], the apparent permeability (Papp) at 5 h, 200 uM is > 2 ×10⁻⁶ cm/s. Moreover, in data set [2], the “SGF, compound remaining after 4 hours” value is given as “+++ (+++ indicates 80-99% compound remaining after 4 hours)”; the “SGF + Enz, compound remaining” value is “+++ (+++ indicates 80-99% compound remaining after 4 hours)”; the “SIF, compound remaining after 4 hours” value is “+++ (+++ indicates 80-99% compound remaining after 4 hours)”. In the data set on HGF/MET system, the Potency result is “+++ (+++ indicates maximum potency at or above 1 nM)”.

`CCC(C)CN1CC2N(C(=O)c3ccc(F)cc3)CCC(=O)N2C(C)C1=O` (stereo not drawn) [Compound 11, 1-(4-fluorobenzoyl)-6-methyl-8-(2-methylbutyl)hexahydro-4H-pyrazino[1,2-a]pyrimidine-4,7(6H)-dione]: the apparent permeability coefficient (Papp) at 5 h, 200 uM in data set [1] was > 2 ×10⁻⁶ cm/s. In addition, in data set [2], the “SGF, compound remaining after 4 hours” value is recorded as “+++ (+++ indicates 80-99% compound remaining after 4 hours)”; the “SGF + Enz, compound remaining” value is “+++ (+++ indicates 80-99% compound remaining after 4 hours)”; the “SIF, compound remaining after 4 hours” value was “++++ (++++ indicates 100% compound remaining after 4 hours)”. The Potency entry in the data set on HGF/MET system is listed as “+++ (+++ indicates maximum potency at or above 1 nM)”.

Turning to `C=CCCN1CC2N(C(=O)c3ccc(C(F)(F)F)cc3)CCC(=O)N2C(C)C1=O` (stereo not drawn) [Compound 22], the apparent permeability (Papp) at 5 h, 200 uM in data set [1] is < 2 ×10⁻⁶ cm/s. Further, in data set [2], the “SGF, compound remaining after 4 hours” value was “+++ (+++ indicates 80-99% compound remaining after 4 hours)”; the “SGF + Enz, compound remaining” value is given as “+++ (+++ indicates 80-99% compound remaining after 4 hours)”; the “SIF, compound remaining after 4 hours” value is on record as “+++ (+++ indicates 80-99% compound remaining after 4 hours)”. The Potency entry in the data set on HGF/MET system is given as “+++ (+++ indicates maximum potency at or above 1 nM)”.

As for `CC1C(=O)N(CCC2CCC2)CC2N(C(=O)c3ccc(C(F)(F)F)cc3)CCC(=O)N12` (stereo not drawn) [Compound 20], the Papp at 5 h, 200 uM in data set [1] is < 2 ×10⁻⁶ cm/s. In data set [2], the “SGF, compound remaining after 4 hours” value is recorded as “+++ (+++ indicates 80-99% compound remaining after 4 hours)”; the “SGF + Enz, compound remaining” value is on record as “+++ (+++ indicates 80-99% compound remaining after 4 hours)”; the “SIF, compound remaining after 4 hours” value was “+++ (+++ indicates 80-99% compound remaining after 4 hours)”. Also, in the data set with HGF/MET system, the Potency result is on record as “+ (+ indicates maximum potency at or above 100 nM)”.

For orientation: Papp means a coefficient for how fast a substance crosses the barrier.
